Assay results published in article PMC3692431, “Anticonvulsant Activity of B2, an Adenosine Analog, on Chemical Convulsant-Induced Seizures” (PLoS ONE, 2013).
Like-named read-outs stand apart in the source and are kept apart here.

Experiments:
KA-induced seizures = KA-induced seizures in mice; format: in vivo; conditions: KA 0.7 µg i.c.v.
Method: (§1) KA was dissolved in saline and the pH was adjusted to neutrality. The final concentration of KA was 0.7 µg/µl, and the convulsant dose was 1 µl (i.c.v.). […] The selective adenosine receptor antagonist DPCPX or SCH58261 was administered (i.p.) 5 min before administration of B2 or vehicle.
The left lateral ventricle (0.6 mm posterior, 1.9 mm lateral, and 2.1 mm ventral to bregma) was cannulated as described. After a 7-day recovery period, mice were injected with either B2 (1.25, 5, 20 mg/kg) or vehicle. Twenty minutes later, an intracerebroventricular injection of KA (0.7 µg/µl, 1 µl) was administered without anesthesia. The animals were then observed for a minimum of 60 min. Seizure severity was determined according to the scoring system described by Racine. At the end of the experiment, cannulae placement was verified.

4-AP-induced seizures = 4-AP-induced seizures in mice; format: in vivo; conditions: 4-AP 13 mg/kg; for latency of seizure onset prolonged by: vs control
Method: as §1
Mice were injected with B2 (1.25, 5, 20 mg/kg), carbamazepine (80 mg/kg) or vehicle 20 min before administration of strychnine (1.5 mg/kg) or 4-AP (13 mg/kg). […] The time of latency to seizure onset and mortality rate were recorded.

[1] = test system: picrotoxin-induced seizures; format: in vivo, mice; conditions: picrotoxin 3.5 mg/kg; for mortality rate: control 50%; for latency to seizure onset prolonged by / number of seizures reduced by: vs control
Method: as §1
The latency of seizure onset, number of seizures, and mortality rate was recorded for the picrotoxin-injected mice. For the PTZ-injected mice, we recorded the latency of seizure onset, number of seizures, and presence of clonic seizures.

A1 adenosine receptor = target: T1, A1 adenosine receptor (Rattus norvegicus, UniProt P25099); assay: Radioligand binding, [3H]DPCPX displacement in rat cortical membranes; conditions: 0.2 nM [3H]DPCPX
T1 construct: from tissue; host or cells: cerebral cortex of male Wistar rats
T1 sequence (P25099 1-326): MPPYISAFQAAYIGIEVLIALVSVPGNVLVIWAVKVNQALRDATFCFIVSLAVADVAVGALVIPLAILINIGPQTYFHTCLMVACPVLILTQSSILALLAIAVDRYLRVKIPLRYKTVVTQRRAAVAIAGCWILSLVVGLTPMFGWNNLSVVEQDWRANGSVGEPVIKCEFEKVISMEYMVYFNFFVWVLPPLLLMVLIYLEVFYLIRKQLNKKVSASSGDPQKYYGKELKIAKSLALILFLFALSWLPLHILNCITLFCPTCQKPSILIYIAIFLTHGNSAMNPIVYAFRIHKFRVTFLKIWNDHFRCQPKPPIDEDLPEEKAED

A2A adenosine receptor = target: T2, A2A adenosine receptor (Rattus norvegicus, UniProt P30543); assay: Radioligand binding, [3H]MSX-2 displacement in rat striatal membranes; conditions: 0.75 nM [3H]MSX-2
T2 construct: from tissue; host or cells: striatum of male Wistar rats
T2 sequence (P30543 whole entry): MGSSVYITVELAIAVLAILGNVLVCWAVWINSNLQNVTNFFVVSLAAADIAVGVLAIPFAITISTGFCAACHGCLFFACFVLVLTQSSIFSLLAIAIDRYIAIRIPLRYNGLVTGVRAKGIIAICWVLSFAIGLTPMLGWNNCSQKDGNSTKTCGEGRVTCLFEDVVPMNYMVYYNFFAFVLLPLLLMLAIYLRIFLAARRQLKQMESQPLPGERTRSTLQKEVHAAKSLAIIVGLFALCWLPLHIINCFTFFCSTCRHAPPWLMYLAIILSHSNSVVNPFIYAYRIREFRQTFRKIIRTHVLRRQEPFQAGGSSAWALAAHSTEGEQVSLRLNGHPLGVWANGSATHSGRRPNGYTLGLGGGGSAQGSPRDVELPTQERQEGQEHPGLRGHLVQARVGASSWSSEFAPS
Method: Male Wistar rats were sacrificed. The cerebral cortex and striatum were then removed and homogenized in 10 volumes of ice-cold 50 mM Tris–HCl buffer (pH 7.4). The homogenates were centrifuged (48,000 ×g) at 4°C for 10 min, the supernatant decanted, and the pellet resuspended in the same volume of buffer before being centrifuged again. The final pellets were resuspended in 50 mM Tris–HCl buffer containing adenosine deaminase (1.2 U per mg of protein) to remove endogenous adenosine.
Binding affinity at adenosine A2A receptors was tested in rat striatal membranes using 0.75 nM [^3H]MSX-2 (104.8 Ci/mmol). The binding assay was carried out in Tris–HCl buffer (50 mM, pH 7.4) as previously described, [12]. Briefly, assays were performed by first incubating the mixtures on a shaking water-bath at 25°C for 30 min. Termination of the incubation was performed by rapid filtration through GF/B glass fiber filters. The radioactivity on the filter was measured using a scintillation counter. […] Inhibition curves were determined using eight different concentrations ranging from 10^−5 to 10^−8 M. The inhibition constants (Ki) were calculated using an equation from Cheng and Prusoff.

PTZ-induced seizures = PTZ-induced seizures with adenosine receptor antagonist pretreatment; format: in vivo, mice; conditions: B2 5 mg/kg; PTZ 85 mg/kg; P<0.05
Method: as §1
Twenty min later, mice were admdinistered with PTZ (85 mg/kg).

[2] = test system: c-Fos expression in the hippocampus; assay: PTZ-induced c-Fos expression, immunohistochemistry; format: in vivo, mice; conditions: B2 5 mg/kg, PTZ 85 mg/kg, 2 h
Method: Mice were injected with either B2 (5 mg/kg) or vehicle 20 min before administration of PTZ (85 mg/kg). Two hours later, mice were either anesthetized for c-Fos analysis using immunohistochemistry or decapitated or western blotting.
Mice were anesthetized with chloral hydrate (400 mg/kg, i.p.) and perfused through the heart with saline solution followed by ice-cold 4% paraformaldehyde (PFA) in 0.1 M phosphate buffer (pH 7.4). Their brains were then removed, post-fixed in 4% PFA for 24 h at 4°C, and immersed in 30% sucrose at 4°C until they sank. Thereafter, coronal sections (30 µm) were cut using a freezing microtome (Leica RM2125).
Sections were immunostained using previously described methods. Sections were first immersed in 0.3% Triton X-100 for 10 min at room temperature, and then in 3% hydrogen peroxide for 10 min to quench endogenous peroxidase activity. Sections were then rinsed twice in 10 mM phosphate-buffered saline (pH 7.2) containing 0.3% Triton X-100. This was followed by incubation with diluted normal blocking serum (Vector Elite ABC kit) for 30 min and then 1∶800 rabbit polyclonal anti-c-Fos (primary) antibodies overnight at 4°C. Biotinylated secondary antibody solutions and VectaStain® Elite ABC reagents were applied. The peroxidase reaction was visualized using DAB with nickel ammonium sulfate for black staining. Sections were mounted, dehydrated and cover slipped. […]

PC12 cell = test system: PC12 cell; parameters: method as in PMID 22242450; conditions: cited from earlier work

## COc1cc(CNc2ncnc3c2ncn3[C@@H]2O[C@H](CO)[C@@H](O)[C@H]2O)ccc1O [B2, N^6-(3-methoxyl-4-hydroxybenzyl) adenine riboside]
KA-induced seizures; B2 1.25 mg/kg i.p.
  average seizure duration: 5.3 ± 0.8 min
KA-induced seizures; B2 5 mg/kg i.p.
  average seizure duration: 3.7 ± 0.7 min
KA-induced seizures; B2 20 mg/kg i.p.
  average seizure duration: 3.3 ± 1.0 min
4-AP-induced seizures; B2 1.25 mg/kg i.p.
  latency of seizure onset prolonged by: 25%
4-AP-induced seizures; B2 5 mg/kg i.p.
  latency of seizure onset prolonged by: 135%
4-AP-induced seizures; B2 20 mg/kg i.p.
  latency of seizure onset prolonged by: 96%
4-AP-induced seizures; B2 1.25, 5, 20 mg/kg i.p., control 100%
  effect on mortality rate: did not have a significant effect
[1]; B2 1.25 mg/kg i.p.
  mortality rate: 25%
  latency to seizure onset prolonged by: 64%
  number of seizures reduced by: 18%
[1]; B2 5 mg/kg i.p.
  mortality rate: 13%
  latency to seizure onset prolonged by: 242%
  number of seizures reduced by: 64%
[1]; B2 20 mg/kg i.p.
  mortality rate: 25%
  latency to seizure onset prolonged by: 183%
  number of seizures reduced by: 53%
A1 adenosine receptor
  Ki: 420 nM
A2A adenosine receptor
  Ki: 370 nM
PTZ-induced seizures
  effect on latency to seizure onset: significantly prolonged
[2]
  effect on PTZ-induced increase of c-Fos expression in the CA2/3 region: minor effect
  effect on PTZ-induced increase of c-Fos expression in the dentate gyrus and CA1: significantly reversed
PC12 cell
  PC12 cell survival in serum deprivation-induced apoptosis: remarkably increased
